Data published in patent US5108990A, “Glutamic acid derivatives” (Roussel Uclaf, priority 1987, dated 1992).
Counter-ions that a name gives are not always drawn.

Key:
monocytes [1] = experiment: Stimulation of monocytic cells; Tumor Necrosis Factor (TNF) test on supernatants (toxicity on L-929 target cells); assay type: cell-based, human; conditions: adherent blood monocytes cultured 24 or 48 hours with test product
Experimental: (§1) The mononuclear cells of the circulating blood of normal donors were separated by the classical technique described by Boyum using a Ficoll gradient. After being washed, the mononuclear cells were incubated at 37° C. for 1 hour in the proportion of 5×10^6 monocytes (NSE^+ cells) per ml of culture medium, 5 ml per culture bottle. The culture medium used in this experiment was composed of RPMI 1640 to which antibiotics and HEPES buffer had been added. After one hour, the non-adherent cells were removed by washing the bottles with medium previously brought to 37° C., and the adherent cells, composed essentially of monocytes (>90%), were cultured again in the presence of different amounts of test products in a PBS medium (Dulbecco) without Ca^2+ or Mg^2+. Culturing was continued for 24 or 48 hours and the cell supernatants were then withdrawn, centrifuged, aliquoted and stored either at -80° C. or at -20° C. The culture supernatants were replaced in the bottles by the same amount of pyrogen-free distilled water to lyse the cells. The lysate was recovered, aliquoted and also stored at -20° C.
(§2) Tests for the presence in the supernants of monokines (interleukin-1 and tumor necrosis factor) on the basis of their biological activity.
The technique was sensitized by adding actinomycin D to the test. The L cells were distributed in the proportion of 2×10^4 cells per well of a flat-bottomed microplate in 100 μl of RPMI 1640 medium enriched with 5% calf serum, glutamine, HEPES buffer and antibiotics. After 24 hours, different dilutions of the test supernatants were added in a volume of 100 μl, as well as a dose of actinomycin D of 1 μg/ml. After 24 hours of culturing, the number of unlysed viable cells was measured by staining the plates with crystal violet and measuring the optical density of different wells on a multiscan reader.

monocytes [2] = experiment: Stimulation of monocytic cells; Interleukin-1 (IL-1) test on supernatants/lysates (mouse thymocyte co-mitogenic assay); assay type: cell-based, human; conditions: for stimulation of monocytes and their IL-1 production: adherent blood monocytes cultured 24 or 48 hours with test product; for synergy with interferon-γ and or LPS: monocyte stimulation (IL-1 and TNF production), IFN-γ 10^3 U/ml, a dose inactive alone
Experimental: as §1, §2
This test was first described by Gery et al in 1972 [Gery et al, 1972 Potentiation of the T Lymphocyte response to mitogens. II. The Cellular Source of Potentiating Mediator(s). J. Exp. Med., 136-143]. It is based on the co-mitogenic action of IL-1 in the presence of an antigen (mimicked by phytohaemagglutinin in the test) on mouse thymocytes. 1.5×10^6 thymocytes of C3 H/HeJ mice (supplied by C.S.E.A.L. of Orleans) were cultured for 3 days in the presence of different dilutions of cell supernatants and lysates likely to contain IL-1 activity, and Wellcome PHA-P (1 μg/ml), in culture plates having 96 flat-bottomed wells, in a final volume of 200 μl of medium composed of RPMI 1640 containing, in addition to antibiotics (penicillin 1 μ/ml streptomycin 1000 μ/ml, 1 mM HEPES buffer, 2 mM glutamine, 5% calf serum and 5×10^-5 M 2-mercaptoethanol). After 68 hours of culturing, 1 μCi of tritiated thymidien was added to each well ([methyl^3 H]-thymidine, CEA Saclay, TMM79A, specific activity […]), and the radioactivity incorporated by the cells was measured after the cultures had been filtered on a Skaton type semi-automatic collecting apparatus and the filters counted in a scintillation counter (LKB). The results were expressed as the difference between the pulses per minute incorporated by the cultures in the presence of supernatants and the pulses per minute incorporated by the control cultures.

human B lymphocytes = experiment: Production of immuno-globulins (ELISA of supernatants, alone or with Staphylococcus aureus Cowan); assay type: cell-based; conditions: in the presence of SAC (10^-3 and 10^-4); 0.1, 1 and 10 μg/ml; one week
Experimental: The same cells were cultivated for a week in the presence of different products to be tested at a dose of 0.1, 1 and 10 μg/ml alone or in the presence of two doses of the bacteria Staphylococcus aureus Cowan (SAC) (10^-3 and 10^-4), bacteria known for stimulating the production of immuno-globulins by the human B lymphocytes in a non-specific manner. The supernatants are collected at the end of the culture, and their content of immuno-globulin is evaluated by standard techniques of detection by the ELISA method using a human anti-immunoglobulin anti-body available commercially. The results are given in ng of immuno-globulin per ml of supernatant.

| Structure (SMILES) | stimulation of monocytes and their TNF production (monocytes [1]) | stimulation of monocytes and their IL-1 production (monocytes [2]) | synergy with interferon-γ and or LPS (monocytes [2]) | production of immuno-globulins in the presence of SAC (human B lymphocytes) |
| --- | --- | --- | --- | --- |
| C=C(CC(N)C(=O)O)CC(NC(=O)CC[C@@H](N)C(=O)O)C(=O)O (stereo partly drawn) [Example 1, 2-amino-6-(γ-D-glutamylamino)-4-methylene-heptanedioic acid] | stimulated | stimulated | synergy |  |
| C=C(CC(N)C(=O)O)CC(NC(=O)CC[C@@H](NC(=O)CCCCCCCCCCCCCCCCC)C(=O)O)C(=O)O (stereo partly drawn) [Example 9, 2-Amino-4-methylene-6-[[N-(1-oxo-octadecyl)-γ-D-glutamyl]amino]-heptanedioic acid] | stimulated | stimulated | synergy |  |
| C=C(CC(N)C(=O)O)CC(NC(=O)CC[C@@H](NC(=O)[C@H](C)NC(=O)CCCCCCCCCCCCCCCCC)C(=O)O)C(=O)O (stereo partly drawn) [Example 8, 2-Amino-4-methylene-6-[N-1-oxo-octadecyl)-L-alanyl)-γ-D-glutamyl-amino]-heptanedioic acid and its tri sodium salt] | stimulated | stimulated | synergy | capable of increasing the production of immuno-globulins |
| C=C(CC(NC(=O)CC[C@@H](N)C(=O)O)C(=O)O)CC(NC(=O)[C@H](C)N)C(=O)O (stereo partly drawn) [Example 2, 2-(L-Alanylamino)-6-(γ-D-glutamylamino)-4-methyleneheptanedioic acid] | stimulated | stimulated | synergy |  |
